Entries after “also recorded” stand apart in the source; their conditions may differ.
Legend:
Assay type in all cases: physicochemical
[1] = Competitive slurry of Pattern 1 and Pattern 2 in EtOH/water/MtBE (form stability, XRPD)
Procedure: In order to study form stability in EtOH/water/MtBE, competitive repining experiments were carried out at 50° C., 35° C., and 5° C. respectively, by adding 100 mg of anhydrous Pattern 1 solid and 100 mg of Pattern 2 solid.

[2] = 8-week stability assessment at 40 °C/75% RH (XRPD, appearance, chiral HPLC); conditions: for Chiral Purity: chiral HPLC
Procedure: XRPD analysis was carried out on a PANalytical X'pert pro, scanning the samples between 3 and 35° 2θ. The material was gently ground to release any agglomerates and loaded onto a multi-well plate with Kapton or Mylar polymer film to support the sample. The multi-well plate was then placed into the diffractometer and analyzed using Cu K radiation (α1λ=1.54060 Å; α2=1.54443 Å; β=1.39225 Å; α1: α2 ratio=0.5) running in transmission mode (step size 0.0130° 2θ) using 40 kV/40 mA generator settings.
13. Chiral HPLC Column: Daicel IC (5.0 um, 250*4.6 mm) Column Temperature: 30° C. Injection Volume: 5 μL Flow Rate: 1.0 mL/min Mobile Phase A: 0.01% DEA in n-Hexane Mobile Phase B: EtOH:MeOH=2:8 (v/v) Diluent: Acetonitrile PDA Range: 220 nm Gradient program: […]

[3] = 1 day stability assessment at 40 °C/75% RH (XRPD); conditions: 2 hours at 40 °C/75% RH
[4] = Solvent solubility screen of CHP lyophile
Procedure: To a known mass of CHP lyophile (10 mg, from Section 5.2.2), 100 μL of the appropriate solvent was added and if solid remained the vial was gently heated to ˜40° C. to aid dissolution. Solvent addition continued until the material fully dissolved or 2 mL had been added (<5 mg/mL). The samples were uncapped and allowed to evaporate at ambient. The solvents used in the solubility screen can be found in Table 21.

## O=C1N[C@@H](Cc2c[nH]cn2)C(=O)N2CCC[C@@H]12 [Pattern 1 and Pattern 2]
[1]; (EtOH:H2O = 9:1):MTBE = 1:2, 5 °C, 0 h
  XRPD tracking: Pattern 2
[1]; (EtOH:H2O = 9:1):MTBE = 1:2, 5 °C, 2 h
  XRPD tracking: Pattern 2
[1]; (EtOH:H2O = 9:1):MTBE = 1:2, 5 °C, 6 d
  XRPD tracking: Pattern 2
[1]; (EtOH:H2O = 9:1):MTBE = 1:2, 5 °C, 7 d
  XRPD tracking: Pattern 2
[1]; (EtOH:H2O = 9:1):MTBE = 1:2, 35 °C, 0 h
  XRPD tracking: Pattern 2
[1]; (EtOH:H2O = 9:1):MTBE = 1:2, 35 °C, 2 h
  XRPD tracking: Pattern 2
[1]; (EtOH:H2O = 9:1):MTBE = 1:2, 50 °C, 0 h
  XRPD tracking: Pattern 2
[1]; (EtOH:H2O = 9:1):MTBE = 1:2, 50 °C, 2 h
  XRPD tracking: Pattern 2
[1]; (EtOH:H2O = 9:1):MTBE = 1:3, 5 °C, 0 h
  XRPD tracking: Pattern 2
[1]; (EtOH:H2O = 9:1):MTBE = 1:3, 5 °C, 2 h
  XRPD tracking: Pattern 2
[1]; (EtOH:H2O = 9:1):MTBE = 1:3, 5 °C, 6 d
  XRPD tracking: Pattern 2
[1]; (EtOH:H2O = 9:1):MTBE = 1:3, 5 °C, 7 d
  XRPD tracking: Pattern 2
[1]; (EtOH:H2O = 9:1):MTBE = 1:3, 35 °C, 0 h
  XRPD tracking: Pattern 2
[1]; (EtOH:H2O = 9:1):MTBE = 1:3, 35 °C, 2 h
  XRPD tracking: Pattern 2
[1]; (EtOH:H2O = 9:1):MTBE = 1:3, 35 °C, 6 d
  XRPD tracking: Pattern 2
[1]; (EtOH:H2O = 9:1):MTBE = 1:3, 35 °C, 7 d
  XRPD tracking: Pattern 2
[1]; (EtOH:H2O = 9:1):MTBE = 1:3, 50 °C, 0 h
  XRPD tracking: Pattern 2
[1]; (EtOH:H2O = 9:1):MTBE = 1:3, 50 °C, 2 h
  XRPD tracking: Pattern 2
[1]; (EtOH:H2O = 9:1):MTBE = 1:3, 50 °C, 6 d
  XRPD tracking: Pattern 2
[1]; (EtOH:H2O = 9:1):MTBE = 1:3, 50 °C, 7 d
  XRPD tracking: Pattern 2
[1]; (EtOH:H2O = 9:1):MTBE = 2.5:0.5, 5 °C, 0 h
  XRPD tracking: Pattern 2
[1]; (EtOH:H2O = 9:1):MTBE = 2.5:0.5, 5 °C, 2 h
  XRPD tracking: Pattern 2
[1]; (EtOH:H2O = 9:1):MTBE = 2.5:0.5, 5 °C, 6 d
  XRPD tracking: Pattern 2
[1]; (EtOH:H2O = 9:1):MTBE = 2.5:0.5, 5 °C, 7 d
  XRPD tracking: Pattern 2
[1]; (EtOH:H2O = 9:1):MTBE = 2.5:0.5, 35 °C, 0 h
  XRPD tracking: Pattern 2
[1]; (EtOH:H2O = 9:1):MTBE = 2.5:0.5, 35 °C, 2 h
  XRPD tracking: Pattern 2
[1]; (EtOH:H2O = 9:1):MTBE = 2.5:0.5, 35 °C, 6 d
  XRPD tracking: Pattern 2
[1]; (EtOH:H2O = 9:1):MTBE = 2.5:0.5, 35 °C, 7 d
  XRPD tracking: Pattern 2
[1]; (EtOH:H2O = 9:1):MTBE = 2.5:0.5, 50 °C, 0 h
  XRPD tracking: Pattern 2
[1]; (EtOH:H2O = 9:1):MTBE = 2.5:0.5, 50 °C, 2 h
  XRPD tracking: Pattern 2
[1]; (EtOH:H2O = 9:1):MTBE = 2.5:0.5, 50 °C, 6 d
  XRPD tracking: Pattern 2
[1]; (EtOH:H2O = 9:1):MTBE = 3:0, 5 °C, 0 h
  XRPD tracking: Pattern 2
[1]; (EtOH:H2O = 9:1):MTBE = 3:0, 5 °C, 2 h
  XRPD tracking: Pattern 2
[1]; (EtOH:H2O = 9:1):MTBE = 3:0, 5 °C, 6 d
  XRPD tracking: Pattern 2
[1]; (EtOH:H2O = 9:1):MTBE = 3:0, 5 °C, 7 d
  XRPD tracking: Pattern 2
[1]; (EtOH:H2O = 9:1):MTBE = 3:0, 35 °C, 0 h
  XRPD tracking: Pattern 2
[1]; (EtOH:H2O = 9:1):MTBE = 3:0, 35 °C, 2 h
  XRPD tracking: Pattern 2
[1]; (EtOH:H2O = 9:1):MTBE = 3:0, 35 °C, 6 d
  XRPD tracking: Pattern 2
[1]; (EtOH:H2O = 9:1):MTBE = 3:0, 35 °C, 7 d
  XRPD tracking: Pattern 2
[1]; (EtOH:H2O = 9:1):MTBE = 3:0, 50 °C, 0 h
  XRPD tracking: Pattern 2

## O=C1N[C@@H](Cc2cnc[nH]2)C(=O)N2CCC[C@@H]12 [Pure Pattern 1, Cyclo (-His-Pro)]
[2]; 2-week
  Appearance: Faint beige
  Chiral Purity: 99.9%
[2]; 4-week
  Appearance: Faint beige
  Chiral Purity: 99.9%
[2]; 4 weeks
  XRPD form after storage: remained as pattern 2
[2]; 8-week
  Appearance: Faint beige
  Chiral Purity: 99.9%
[2]; 8 weeks
  XRPD form after storage: remained as pattern 2
[2]; Initial
  Appearance: Faint beige
  Chiral Purity: >99.9%
[2]; two weeks (14 days)
  XRPD form after storage: converted to pattern 2; also recorded: converting to the hydrated pattern 2
[3]; listed as Pure pattern 1
  XRPD form after storage: convert to pattern 2
[3]; listed as pure pattern 1
  XRPD form after storage: converts to pattern 2

## O=C1N[C@@H](Cc2cnc[nH]2)C(=O)N2CCC[C@@H]12 [CHP Lyophile, Cyclo (-His-Pro)]
[4]; 1-Butanol
  Approximate Solubility: ≥5000 µg/mL
[4]; 2-Butanol
  Approximate Solubility: ≥5000 µg/mL
[4]; Dichloromethane
  Approximate Solubility: ≤5000 µg/mL
[4]; Ethyl Acetate
  Approximate Solubility: ≤5000 µg/mL
[4]; Ethyl Formate
  Approximate Solubility: ≤5000 µg/mL
[4]; Heptane
  Approximate Solubility: ≤5000 µg/mL
[4]; Isopropyl Acetate
  Approximate Solubility: ≤5000 µg/mL
[4]; Methylethyl Ketone
  Approximate Solubility: ≤5000 µg/mL
[4]; Methylisobutyl Ketone
  Approximate Solubility: ≤5000 µg/mL
[4]; Nitromethane
  Approximate Solubility: ≤5000 µg/mL
[4]; THF
  Approximate Solubility: ≤5000 µg/mL
[4]; acetone
  Approximate Solubility: ≤5000 µg/mL
[4]; acetonitrile
  Approximate Solubility: ≤5000 µg/mL
[4]; tert-Butylmethyl Ether
  Approximate Solubility: ≤5000 µg/mL

— patent publication US12534496B2, “Polymorphic forms of Cyclo (-His-Pro) and methods of use to treat kidney disease” (NovMetaPharma Co., Ltd., priority 2018, dated 2026)
